{
  "source": "patent US7572436B1",
  "about": "“Thionin as an antineoplastic and immunostimulant” (priority 2000, dated 2009)",
  "key": {"[1]": {"tested_on": "Balb C splenocytes", "assay": "Mitogen assay (^3H-thymidine uptake), murine splenocytes", "assay_type": "cell-based", "conditions": "for Cpm, standard mitogen assay: 0.1 μg/ml PT"}, "[2]": {"tested_on": "murine Balb/C splenocytes", "assay": "Binding of ^125I-labeled PT to mouse spleen cells", "conditions": "for Kd: ^125I-PT", "text": "Splenocytes are isolated from the spleens of selected mice (as described herein), treated to remove red cells, resuspended in PBS after washing, and counted using Trypan Blue exclusion. The average yield of spleen cells (splenocytes) from one spleen is 1−1.5×10^8 cells. A desired concentration of cells per sample tube in the binding assay is more than 5×10^6 cells/ml.\nThe protocol for the binding assay has been previously described (Vernon and Rogers, Toxicon 30:711-721, 1992). Reactions were carried out in a total volume of 400 μl in each microcentrifuge tube (160 μl PBS with ^125I-labeled PT at varying concentrations with 240 μl of spleen cell suspensions).\nA total of 10^7 spleen cells were placed in each of the reaction microfuge tubes, and allowed to equilibrate at room temperature for five minutes. To each tube was added radiolabeled thionin (e.g., ^125I-PT) in amounts from 0.1 to 20 μg/ml. The radiolabeled PT used in the experiments contained approximately 10^6 counts/minute (0.3 μCi) per μg PT. The suspension was incubated at room temperature for 10 minutes, then placed on ice for an additional 10 minutes. The tubes were then centrifuged to pellet the cells.\nThe radioactivity in the supernatant fluid was determined from an aliquot removed from the tube. The plastic pipette tip used to transfer the aliquot was also put in the vial and counted in a gamma ray counter along with the transferred aliquot of the supernatant fluid, since this tip may absorb PT from the aliquot during transfer. The radioactivity amount determined represents the “free” PT, not bound to a cell.\nAfter removal of the entire supernatant, the sedimented cells were washed twice in PBS, and the entire final washed suspension of cells was transferred to a vial for radioactivity counting. As with measurement of radioactivity in the supernatant, the pipette tip used to transfer the cell sample was added to the vial to include any PT that might be bound to the plastic tip. This measures the total “bound” PT.\nNon-specific binding was determined in the presence of a 100-fold excess of non-radioactive iodinated PT. The binding data reported were obtained by subtracting the non-specific from the total binding. Triplicate assays were performed for each concentration of PT employed."}, "[3]": {"tested_on": "IL-2", "assay": "ELISA of IL-2 production by splenocytes", "assay_type": "cell-based", "conditions": "Balb C murine spleen cells, 0.05 μg/ml PT, 48 hours", "experimental": "Identical plates are set up for an immunoassay and a mitogen assay. Mouse splenocytes and immuno-stimulating drugs are plated in duplicate wells (immunoassay) and triplicate wells (mitogen assay) in 96-well microplates as described above. […] At the end of the activation/proliferation period, the two identical plates are harvested as an immunoassay for cytokines or harvested as a mitogen assay (to which ^3H-thymidine has been added approximately 16-18 hours earlier).\nImmunoassay kits used to detect IL-1β, IL-2, and IL-12 were the murine Quantikine M™ kits produced by R&D Systems (Minneapolis, Minn.). The general procedure is the same for all interleukin cytokines, and is described in the instructions provided by the manufacturer. […]\n(§1) One hundred microliters of Substrate Solution are added to each well and incubated 30 minutes at room temperature. […] The plate is read for absorbence at 450 nm and at 540 nm for background readings.\n(§2) To calculate the results, the duplicate readings for each pair of standard, control, and test samples are averaged and the average background optical density readings are subtracted. […] Picograms of cytokine are determined from the standard curve. Mitogenic activity determined from the cpm of ^3H-thymidine is compared to the concentrations of cytokine in the experimental samples in the corresponding immunoassay. […]"}, "[4]": {"tested_on": "IL-12", "assay": "ELISA of IL-12 production by splenocytes", "assay_type": "cell-based, Balb C murine", "conditions": "48 hours, PT 0.05 μg/ml", "experimental": "Identical plates are set up for an immunoassay and a mitogen assay. Mouse splenocytes and immuno-stimulating drugs are plated in duplicate wells (immunoassay) and triplicate wells (mitogen assay) in 96-well microplates as described above. The incubation at 37° C. in a humidified 5% CO2 incubator may vary from three to five days. At the end of the activation/proliferation period, the two identical plates are harvested as an immunoassay for cytokines or harvested as a mitogen assay (to which ^3H-thymidine has been added approximately 16-18 hours earlier).\nImmunoassay kits used to detect IL-1β, IL-2, and IL-12 were the murine Quantikine M™ kits produced by R&D Systems (Minneapolis, Minn.). The general procedure is the same for all interleukin cytokines, and is described in the instructions provided by the manufacturer. All reagents are used at room temperature, and are prepared according to kit instructions.\nThe immunoassay plate is centrifuged at 200×g to pellet all cells. A 50 μl aliquot of Assay Diluent is first added to the center of each special enzyme-coated well supplied with the kit. Next, 50 μl of standard, control or test sample of supernatant from the immunoassay incubation plate is added to each well. This is incubated at room temperatures for two hours.\nLiquid is aspirated from the wells, and the wells are washed five times with surfactant diluted 1:25 with distilled water. A 100 μL aliquot of Conjugate is added to each well and incubated two hours at room temperature. […]\nas §1, §2"}},
  "note": "Several values for one entry are separate records, joined by “and”; a condition that tells them apart may be missing. Equal values may be shown once. Read-outs that look alike come from different tables or passages of the source. Where no end group is shown, it is not given here.",
  "data": [
    {"substance": "Pyrularia thionin (KSCCRNTWARNCYNVCRLPGTISREICAKKCDCKIISGTTCPSDYPK; ends and bridges not checked; also: labeled with 125I) [PT]", "values": [
      {"measurement": "stimulation of the mitogen reaction", "setting": "[1]; 0.1 μg/ml (PT 20 nM; βME 40 nM)", "result": "modest"},
      {"measurement": "Cpm, standard mitogen assay", "setting": "[1]; GM-CSF (5 ng/ml)", "result": 822, "unit": "Cpm"},
      {"measurement": "Cpm, standard mitogen assay", "setting": "[1]; no GM-CSF", "result": 243, "unit": "Cpm"},
      {"measurement": "Kd", "setting": "[2]; PT up to 1 μg/ml, read-out: dissociation constant, high affinity binding site", "result": "65 nM and ~65 nM"},
      {"measurement": "Kd", "setting": "[2]; PT up to 20 μg/ml, read-out: dissociation constant, low affinity binding site", "result": "1600 nM and ~1600 nM"},
      {"measurement": "number of sites per cell, high affinity site", "setting": "[2]; murine spleen cells", "result": "1.4×10^5"},
      {"measurement": "number of sites per cell, low affinity site", "setting": "[2]; murine spleen cells", "result": "1×10^6"},
      {"measurement": "stimulation of production of IL-2", "setting": "[3]", "result": "not conclusive"},
      {"measurement": "IL-12", "setting": "[4]; Experiment 1, KLH 10 μg/ml, control 1.5", "result": "5.6 ± 0.3", "unit": "pg/mL"},
      {"measurement": "IL-12", "setting": "[4]; Experiment 2, control 21", "result": "24 ± 0.3", "unit": "pg/mL"}
    ]}
  ]
}
